Key:
[1] = test system: E. coli (pRSF-PAL-PAD_pET-SMO-SOI-PAR); format: cell-based
Procedure: (§1) The reaction for FIG. 17b was done at 30° C. and 250 rpm in 2 ml KP buffer (100 mM, pH 8.0) containing 0.5% (w/v) glucose, 5 g cdw/L of cell suspension, 10 mM L-phenylalanine, and (•) 0 or (▴) 3 mM of 2-PE in the aqueous phase, with n-hexadecane in the organic phase.
The product inhibition was investigated by adding different concentration of 2-PE to the cell suspension (10 g cdw/L) of E. coli (pRSF-PAL-PAD_pET-SMO-SOI-PAR) in KP buffer (100 mM, pH 8.0) containing 0.5% glucose in aqueous phase with n-hexadecane as the organic phase, followed by the incubation at 30° C. and 250 rpm for 3 h.
Biotransformation was done in aqueous phase with KP buffer (100 mM, pH 8.0) containing cell suspension (10 g cdw/l), 0.5% glucose, and 50 mM L-phenylalanine as initial substrate while n-hexadecane as the organic phase (250 rpm, 2 h, 30° C.)

[2] = test system: E. coli (R-PAL-PAD_E-SMO-SOI-PAR); experiment: Apparent kinetics of the whole-cells (Lineweaver-Burk plot) with and without 2-PE; format: cell-based; details: competitive inhibition; 3 mM 2-PE, 15 minutes, 5 g cdw/L cells, 10 mM L-phenylalanine, 30° C.
Procedure: as §1
To further investigate the product inhibition, the apparent kinetics of the whole-cells was measured and determined using Lineweaver-Burk plot. 2-PE concentration of 3 mM was used for 15 minutes in order to determine the kinetic, thus the product toxicity towards the cells could be neglected.

[3] = Partition coefficient in aqueous-organic biphasic system; format: physicochemical; details: for Partition coefficient K value: phase ratio 1:1
Procedure: FIGS. 18a and 18b show (FIG. 18a) partition coefficient of 2-PE in aqueous-organic biphasic system. Partition coefficient measured at a phase ratio of 1:1. KP buffer (100 mM, pH 8.0) was utilized as the aqueous buffer. All data were obtained from the mean values of triplicate with standard deviations through HPLC analysis. K value for L-phenylalanine was observed as ˜0 in all the respective organic solvents mentioned and (FIG. 18b) screening of 7 different organic solvent for the one-pot production of 2-PE from L-phenylalanine with the KP buffer (100 mM, pH 8.0) containing 0.5% glucose and 50 mM L-phenylalanine.
In-situ product removal technique via extraction have been conducted to remove the obtained 2-PE from the aqueous phase and make its concentration below the inhibitory level. We investigated different type of organic solvents and ionic liquids to perform the extractive biotransformation for 2-PE production via styrene-derived pathway from L-phenylalanine, starting from the analysis of their partition coefficients in the biphasic system. Product and substrate coefficient partitions in organic and aqueous phase were determined by adding different concentration of 2-PE and L-phenylalanine, respectively, into KP buffer (100 mM, pH 8.0) together with the respective organic solvents. Reaction mixtures were incubated for 1 h (280 rpm, 30° C.).

cells = details: literature; cited from earlier work

Compound	2-PE concentration in the aqueous phase that started to inhibit the biotransformation ([1]; 3 h pretreatment, then 50 mM L-phenylalanine, 2 h, 30° C.)	Toxicity of 2-PE to the cells ([1]; cells 10 g cdw/L incubated with 2-PE 3 h, 30° C., KP buffer pH 8.0 / n-hexadecane)	Biotransformation activity of cells pretreated with 2-PE ([1]; pretreated with 90 mM 2-PE)	Ki [2] [mM]	Partition coefficient K value ([3]; most of the organic solvents used vs KP buffer (100 mM, pH 8.0))	Partition coefficient ([3]; n-hexadecane vs KP buffer (100 mM, pH 8.0), compared with the other organic solvents)	Concentration of 2-PE that will inhibit the cells (cells)	Partition coefficient K value ([3]; all the respective organic solvents vs KP buffer (100 mM, pH 8.0))
OCCc1ccccc1 [2-PE, 2-Phenylethanol]	above 30 mM	toxic	almost no activity	4.8	> 1	much lower	2-3 gr/L	–
N[C@@H](Cc1ccccc1)C(=O)O [L-phenylalanine]	–	–	–	–	–	–	–	~0

Source: patent US11597954B2, “Bioproduction of phenethyl alcohol, aldehyde, acid, amine, and related compounds” (National University of Singapore, priority 2017, dated 2023)
